Assays:
[1] = AUC (0 to 24 hrs) in human at 75 mg/kg, po measured on day 1; format: ADME, organism-based; set-up: time < 24 hr, dose 75 mg/kg, route oral; settings: plasma
Homo sapiens [2] = test: Toxicity in human assessed as occurrence of abdominal pain at 500 […], po administered as single dose; format: organism-based, Abdomen; set-up: route oral; settings: in vivo
[3] = Oral clearance in human at 250 mg/kg measured on day 10; format: ADME, organism-based; set-up: dose 250 mg/kg; settings: in vivo
[4] = Terminal half life in human at 500 […], po measured on day 10; format: ADME, organism-based; set-up: route oral; settings: in vivo, read-out: beta t1/2 (converted)
Homo sapiens [5] = test: Toxicity in human assessed as occurrence of pollakiuria at 500 […], po administered as single dose; format: organism-based; set-up: route oral; settings: in vivo
[6] = AUC (0 to 24 hrs) in human at 500 mg/kg, po measured on day 1; format: ADME, organism-based; set-up: time < 24 hr, dose 500 mg/kg, route oral; settings: plasma
Homo sapiens [7] = test: Toxicity in human assessed as occurrence of abdominal pain at 750 […], po administered as single dose; format: organism-based, Abdomen; set-up: route oral; settings: in vivo
[8] = Oral clearance in human at 75 mg/kg measured on day 1; format: ADME, organism-based; set-up: dose 75 mg/kg; settings: in vivo
[9] = AUC (0 to 24 hrs) in human at 250 mg/kg, po measured on day 10; format: ADME, organism-based; set-up: time < 24 hr, dose 250 mg/kg, route oral; settings: plasma
Homo sapiens [10] = organism: Homo sapiens; test: Plasma protein binding in human; settings: read-out: PPB (converted)
[11] = Clearance in human assessed as compound recovered in urine at 500 mg/kg, po measured on day 1 up to 24 hrs post dose; format: ADME, organism-based; set-up: dose 500 mg/kg, route oral; settings: read-out: amount in urine
[12] = Cmax in human at 750 […], po measured on day 10; format: ADME, organism-based; set-up: dose 750 mg/kg, route oral; settings: in vivo
Homo sapiens [13] = test: Toxicity in human assessed as occurrence of somnolence at 1000 […], po administered as single dose; format: organism-based; set-up: route oral; settings: in vivo
Homo sapiens [14] = test: Toxicity in human assessed as occurrence of somnolence at 500 […], po administered as single dose; format: organism-based; set-up: route oral; settings: in vivo
Homo sapiens [15] = test: Toxicity in human assessed as occurrence of somnolence at 750 […], po administered as single dose; format: organism-based; set-up: route oral; settings: in vivo
Homo sapiens [16] = test: Toxicity in human assessed as occurrence of abdominal pain at 250 […], po administered as single dose; format: organism-based, Abdomen; set-up: route oral; settings: in vivo
[17] = Renal clearance in human at 75 […], po measured on day 1; format: ADME, organism-based, Kidney; set-up: route oral; settings: in vivo, read-out: CL_renal (converted)
[18] = Tmax in human at 750 […], po measured on day 1; format: ADME, organism-based; set-up: route oral; settings: in vivo
[19] = Clearance in human assessed as compound recovered in urine at 500 mg/kg, po measured on day 16 up to 24 hrs post dose; format: ADME, organism-based; set-up: dose 500 mg/kg, route oral; settings: read-out: amount in urine
[20] = Cmax in human at 500 […], po measured on day 1; format: ADME, organism-based; set-up: dose 500 mg/kg, route oral; settings: in vivo
[21] = Renal clearance in human at 250 […], po measured on day 10; format: ADME, organism-based, Kidney; set-up: route oral; settings: in vivo, read-out: CL_renal (converted)
[22] = Renal clearance in human at 500 […], po measured on day 16; format: ADME, organism-based, Kidney; set-up: route oral; settings: in vivo, read-out: CL_renal (converted)
[23] = AUC (0 to 24 hrs) in human at 750 mg/kg, po measured on day 10; format: ADME, organism-based; set-up: time < 24 hr, dose 750 mg/kg, route oral; settings: plasma
[24] = Tmax in human at 1000 […], po measured on day 1; format: ADME, organism-based; set-up: route oral; settings: in vivo
[25] = Clearance in human assessed as compound recovered in urine at 75 mg/kg, po measured on day 1 up to 24 hrs post dose; format: ADME, organism-based; set-up: dose 75 mg/kg, route oral; settings: read-out: amount in urine
[26] = Cmax in human at 75 […], po measured on day 10; format: ADME, organism-based; set-up: dose 75 mg/kg, route oral; settings: in vivo
[27] = Tmax in human at 750 […], po measured on day 10; format: ADME, organism-based; set-up: dose 750 mg/kg, route oral; settings: in vivo
Homo sapiens [28] = test: Toxicity in human assessed as occurrence of dermatitis at 250 […], po administered as single dose; format: organism-based; set-up: route oral; settings: in vivo
Homo sapiens [29] = test: Toxicity in human assessed as occurrence of dermatitis at 500 […], po administered as single dose; format: organism-based; set-up: route oral; settings: in vivo
[30] = AUC (0 to 24 hrs) in human at 250 mg/kg, po measured on day 1; format: ADME, organism-based; set-up: time < 24 hr, dose 250 mg/kg, route oral; settings: plasma
Homo sapiens [31] = test: Toxicity in human assessed as occurrence of pruritus at 500 […], po administered as single dose; format: organism-based; set-up: route oral; settings: in vivo
[32] = Clearance in human assessed as compound recovered in urine at 250 mg/kg, po measured on day 10 up to 24 hrs post dose; format: ADME, organism-based; set-up: dose 250 mg/kg, route oral; settings: read-out: amount in urine
[33] = Renal clearance in human at 250 […], po measured on day 1; format: ADME, organism-based, Kidney; set-up: route oral; settings: in vivo, read-out: CL_renal (converted)
Homo sapiens [34] = test: Toxicity in human assessed as occurrence of abdominal pain at 1000 […], po administered as single dose; format: organism-based, Abdomen; set-up: route oral; settings: in vivo
Homo sapiens [35] = test: Toxicity in human assessed as occurrence of somnolence at 250 […], po administered as single dose; format: organism-based; set-up: route oral; settings: in vivo
[36] = AUC (0 to last) in human at 250 mg/kg, po measured on day 10; format: ADME, organism-based; set-up: time 0 - last, dose 250 mg/kg, route oral; settings: plasma
[37] = AUC (0 to last) in human at 500 mg/kg, po measured on day 16; format: ADME, organism-based; set-up: time 0 - last, dose 500 mg/kg, route oral; settings: plasma
[38] = Cmax in human at 1000 […], po measured on day 1; format: ADME, organism-based; set-up: dose 1000 mg/kg, route oral; settings: in vivo
Homo sapiens [39] = test: Toxicity in human assessed as occurrence of rashes at 75 […], po administered as single dose; format: organism-based; set-up: route oral; settings: in vivo
[40] = Cmax in human at 500 […], po measured on day 10; format: ADME, organism-based; set-up: dose 500 mg/kg, route oral; settings: in vivo
[41] = Renal clearance in human at […], po measured on day 10; format: ADME, organism-based, Kidney; settings: in vivo, read-out: CL_renal (converted)
[42] = Cmax in human at 250 […], po measured on day 1; format: ADME, organism-based; set-up: dose 250 mg/kg, route oral; settings: in vivo
[43] = Tmax in human at 500 […], po measured on day 16; format: ADME, organism-based; set-up: dose 500 mg/kg, route oral; settings: in vivo
Homo sapiens [44] = test: Toxicity in human assessed as occurrence of pollakiuria at 75 […], po administered as single dose; format: organism-based; set-up: route oral; settings: in vivo
[45] = Renal clearance in human at 500 […], po measured on day 1; format: ADME, organism-based, Kidney; set-up: route oral; settings: in vivo, read-out: CL_renal (converted)
[46] = Terminal half life in human at 1000 […], po measured on day 10; format: ADME, organism-based; set-up: route oral; settings: in vivo, read-out: beta t1/2 (converted)
[47] = AUC (0 to last) in human at 1000 […], po measured on day 10; format: ADME, organism-based; set-up: time 0 - last, dose 1000 mg/kg, route oral; settings: plasma
[48] = AUC (0 to 24 hrs) in human at 75 mg/kg, po measured on day 10; format: ADME, organism-based; set-up: time < 24 hr, dose 75 mg/kg, route oral; settings: plasma
[49] = AUC (0 to last) in human at 750 mg/kg, po measured on day 10; format: ADME, organism-based; set-up: time 0 - last, dose 750 mg/kg, route oral; settings: plasma
[50] = Clearance in human assessed as compound recovered in urine at 250 mg/kg, po measured on day 1 up to 24 hrs post dose; format: ADME, organism-based; set-up: dose 250 mg/kg, route oral; settings: read-out: amount in urine
[51] = AUC (0 to 24 hrs) in human at 1000 […], po measured on day 10; format: ADME, organism-based; set-up: time < 24 hr, dose 1000 mg/kg, route oral; settings: plasma
[52] = Cmax in human at 75 […], po measured on day 1; format: ADME, organism-based; set-up: dose 75 mg/kg, route oral; settings: in vivo
[53] = AUC (0 to last) in human at 750 mg/kg, po measured on day 1; format: ADME, organism-based; set-up: dose 750 mg/kg, route oral, time 0 - last; settings: plasma
[54] = Clearance in human assessed as compound recovered in urine at 1000mg/kg, po measured on day 10 up to 24 hrs post dose; format: ADME, organism-based; settings: read-out: amount in urine

AUC(0-t) at 24 h [1]: 3780 ng·h/mL | CL/F [3]: 223 mL/min | half-life [4]: 18.6 h | AUC(0-t) at 24 h [6]: 31600 ng·h/mL | CL/F [8]: 303 mL/min | AUC at 24 h [9]: 16100 ng·h/mL | fraction unbound (Homo sapiens [10]): 0.84 | dose excreted at 24 h [11]: 42.2% | Cmax [12]: 6820 ng/mL | CL renal [17]: 198 mL/min | Tmax [18]: 1.5 h | dose excreted at 24 h [19]: 30.5% | Cmax [20]: 5120 ng/mL | CL renal [21]: 129 mL/min | CL renal [22]: 113 mL/min | AUC at 24 h [23]: 58400 ng·h/mL | Tmax [24]: 2 h | dose excreted at 24 h [25]: 56.4% | Cmax [26]: 514 ng/mL | Tmax [27]: 1.51 h | AUC(0-t) at 24 h [30]: 13700 ng·h/mL | dose excreted at 24 h [32]: 49.9% | CL renal [33]: 115 mL/min | AUC(0-t) [36]: 18700 ng·h/mL | AUC(0-t) [37]: 26000 ng·h/mL | Cmax [38]: 7750 ng/mL | Cmax [40]: 5560 ng/mL | CL renal [41]: 93.8 mL/min | Cmax [42]: 2000 ng/mL | Tmax [43]: 3.07 h | CL renal [45]: 115 mL/min | half-life [46]: 19.4 h | AUC(0-t) [47]: 88300 ng·h/mL | AUC at 24 h [48]: 4270 ng·h/mL | AUC(0-t) [49]: 69300 ng·h/mL | dose excreted at 24 h [50]: 36.8% | AUC at 24 h [51]: 74800 ng·h/mL | Cmax [52]: 502 ng/mL | AUC(0-t) [53]: 46000 ng·h/mL | dose excreted at 24 h [54]: 48.6%
Compound: COc1c(N2C[C@@H](C)C[C@H](N)C2)ccc2c(=O)c(C(=O)O)cn(C3CC3)c12 [NEMONOXACIN]
Activity (Homo sapiens [2]): 0% | Activity (Homo sapiens [5]): 0% | Activity (Homo sapiens [7]): 0% | Activity (Homo sapiens [13]): 0% | Activity (Homo sapiens [14]): 0% | Activity (Homo sapiens [15]): 0% | Activity (Homo sapiens [16]): 0% | Activity (Homo sapiens [28]): 0% | Activity (Homo sapiens [29]): 0% | Activity (Homo sapiens [31]): 0% | Activity (Homo sapiens [34]): 0% | Activity (Homo sapiens [35]): 0% | Activity (Homo sapiens [39]): 0% | Activity (Homo sapiens [44]): 0%

Reference: ChEMBL document CHEMBL1212769, “Multiple-dose safety, tolerability, and pharmacokinetics of oral nemonoxacin (TG-873870) in healthy volunteers” (Antimicrob Agents Chemother, 2010)
